Measured values published in ChEMBL document CHEMBL1201862, “PubChem BioAssay data set” (2004).
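Cells were grown in 96-well plates and exposed to each compound for 48 hours at five concentrations; endpoints were interpolated linearly between bracketing concentrations, or set to the highest concentration if not reached. The concentration for 50% growth inhibition is given as GI50.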 The source made the active and inactive calls. No stated cut-off is given here; in the data, active = GI50 up to about 1.1 µM and inactive = higher.

Tests used:
Assay in all cases: NCI tumour cell line growth inhibition, 48 h
[1] = test system: A498
[2] = test system: A549
[3] = test system: CCRF-CEM
[4] = test system: EKVX
[5] = test system: HL-60
[6] = test system: HT-29
[7] = test system: K562
[8] = test system: MOLT-4
[9] = test system: NCI-H460
[10] = test system: NCI/ADR-RES
[11] = test system: OVCAR-4
[12] = test system: OVCAR-5
[13] = test system: OVCAR-8
[14] = test system: RXF 393
[15] = test system: SF-539
[16] = test system: SK-MEL-28
[17] = test system: SK-OV-3
[18] = test system: SNB-19
[19] = test system: SNB-75
[20] = test system: SR

Row | SMILES | GI50 [1] | GI50 [2] | GI50 [3] | GI50 [4] | GI50 [5] | GI50 [6] | GI50 [7] | GI50 [8] | GI50 [9] | GI50 [10] | GI50 [11] | GI50 [12] | GI50 [13] | GI50 [14] | GI50 [15] | GI50 [16] | GI50 [17] | GI50 [18] | GI50 [19] | GI50 [20]
1 | NCCNc1nc(N2CCCC2)c2nc(Cl)c(NCc3ccccc3)nc2n1 | 1.83 µM (inactive) | 1.71 µM (inactive) | 2.42 µM (inactive) | 1.73 µM (inactive) | 1.97 µM (inactive) | 1.95 µM (inactive) | 0.122 µM (active) | 2.13 µM (inactive) | 1.85 µM (inactive) | 13.6 µM (inactive) | 2.16 µM (inactive) | 2.44 µM (inactive) | 1.76 µM (inactive) | 1.4 µM (inactive) | 1.96 µM (inactive) | 1.79 µM (inactive) | 1.82 µM (inactive) | 1.83 µM (inactive) | 1.72 µM (inactive) | 1.57 µM (inactive)
2 | COC1(c2cccs2)c2ccccc2C(OC)(c2cccs2)c2ccccc21 (configuration not stated) | 28.5 µM (inactive) | 94.8 µM (inactive) | > 100 µM (inactive) | 36.9 µM (inactive) | > 100 µM (inactive) | 50.8 µM (inactive) | 36 µM (inactive) | 16.7 µM (inactive) | > 100 µM (inactive) | 92.7 µM (inactive) | 33.7 µM (inactive) | 44.4 µM (inactive) | > 100 µM (inactive) | 52.4 µM (inactive) | 36.5 µM (inactive) | > 100 µM (inactive) | 86.1 µM (inactive) | 42.8 µM (inactive) | 59.8 µM (inactive) | 40.7 µM (inactive)
3 | COc1ccc(C[C@H]2NC(=O)/C=C/C[C@@H]([C@H](C)[C@H]3O[C@@H]3c3ccccc3)OC(=O)[C@H](CC(C)C)OC(=O)[C@H](C)CNC2=O)cc1 | 2.15e-05 µM (active) | 3.16e-05 µM (active) | 1.75e-05 µM (active) | 3.77e-05 µM (active) | 1.55e-05 µM (active) | 8.18e-06 µM (active) | 9.27e-06 µM (active) | 2.85e-05 µM (active) | 3.13e-05 µM (active) | > 0.0001 µM (active) | > 0.0001 µM (active) | 3.94e-05 µM (active) | 1.69e-05 µM (active) | 9.27e-06 µM (active) | 1.94e-05 µM (active) | 4.83e-05 µM (active) | 2.06e-05 µM (active) | 2.47e-05 µM (active) | 1.47e-05 µM (active) | 3.36e-06 µM (active)
4 | Cc1nnc2cc(C(=O)O)c3ccccc3n2c1=O | > 10 µM (inactive) | > 10 µM (inactive) | > 10 µM (inactive) | > 10 µM (inactive) | > 10 µM (inactive) | > 10 µM (inactive) | > 10 µM (inactive) | > 10 µM (inactive) | > 10 µM (inactive) | > 10 µM (inactive) | > 10 µM (inactive) | > 10 µM (inactive) | > 10 µM (inactive) | > 10 µM (inactive) | > 10 µM (inactive) | > 10 µM (inactive) | > 10 µM (inactive) | > 10 µM (inactive) | 2.55 µM (inactive) | > 10 µM (inactive)
5 | CC1(C)CC(C)(C)C1=NNC(N)=O | > 100 µM (inactive) | > 100 µM (inactive) | > 100 µM (inactive) | > 100 µM (inactive) | > 100 µM (inactive) | > 100 µM (inactive) | > 100 µM (inactive) | > 100 µM (inactive) | > 100 µM (inactive) | > 100 µM (inactive) | > 100 µM (inactive) | > 100 µM (inactive) | > 100 µM (inactive) | > 100 µM (inactive) | > 100 µM (inactive) | > 100 µM (inactive) | > 100 µM (inactive) | > 100 µM (inactive) | > 100 µM (inactive) | > 100 µM (inactive)
6 | CCN(CC)C1C(=O)NC1C#Cc1ccccc1 (configuration not stated) | > 100 µM (inactive) | – | 32 µM (inactive) | > 100 µM (inactive) | 36.6 µM (inactive) | 48 µM (inactive) | 42.3 µM (inactive) | > 10 µM (inactive) | > 100 µM (inactive) | > 100 µM (inactive) | > 100 µM (inactive) | > 100 µM (inactive) | > 100 µM (inactive) | > 100 µM (inactive) | > 100 µM (inactive) | > 100 µM (inactive) | > 100 µM (inactive) | > 100 µM (inactive) | > 100 µM (inactive) | 32 µM (inactive)
7 | O=[N+]([O-])c1cccc2nc3ccccc3c(NCCC[N+]3([O-])CCCCC3)c12 | 0.804 µM (active) | 0.521 µM (active) | 0.546 µM (active) | 0.438 µM (active) | 0.745 µM (active) | 0.301 µM (active) | 1.1 µM (active) | 0.198 µM (active) | 0.279 µM (active) | > 100 µM (inactive) | 0.315 µM (active) | 0.498 µM (active) | 1.85 µM (inactive) | 0.647 µM (active) | 0.479 µM (active) | 0.502 µM (active) | 1.02 µM (active) | 0.638 µM (active) | 0.416 µM (active) | 0.0479 µM (active)
8 | O=[N+]([O-])/C(C(Cl)=C(Cl)Cl)=C(/Cl)SCc1ccccc1 | 24.3 µM (inactive) | 16.3 µM (inactive) | 0.202 µM (active) | 20.4 µM (inactive) | 0.229 µM (active) | 11.5 µM (inactive) | 1.15 µM (inactive) | 0.393 µM (active) | 16.3 µM (inactive) | 1.85 µM (inactive) | 2.85 µM (inactive) | 5.09 µM (inactive) | 1.34 µM (inactive) | 3.01 µM (inactive) | 6.62 µM (inactive) | 5.65 µM (inactive) | 21.2 µM (inactive) | 22.5 µM (inactive) | 1.02 µM (active) | 1.43 µM (inactive)
9 | N#Cc1cc2c(n(C3OC(CO)C(O)C(O)C3O)c1=S)CCCCCC2 (configuration not stated) | > 100 µM (inactive) | > 100 µM (inactive) | > 100 µM (inactive) | – | > 100 µM (inactive) | > 100 µM (inactive) | > 100 µM (inactive) | > 100 µM (inactive) | > 100 µM (inactive) | > 100 µM (inactive) | > 100 µM (inactive) | > 100 µM (inactive) | > 100 µM (inactive) | > 100 µM (inactive) | > 100 µM (inactive) | > 100 µM (inactive) | – | > 100 µM (inactive) | > 100 µM (inactive) | > 100 µM (inactive)
10 | N#Cc1c(NC(=S)Nc2ccc(Cl)cc2)sc2c1CCN(N1CCc3c(sc(NC(=S)Nc4ccc(Cl)cc4)c3C#N)C1)C2 | 15.7 µM (inactive) | 28.5 µM (inactive) | 33 µM (inactive) | 18.2 µM (inactive) | 30.2 µM (inactive) | 13.6 µM (inactive) | 22.4 µM (inactive) | 48.1 µM (inactive) | 32.4 µM (inactive) | 76.6 µM (inactive) | 59.3 µM (inactive) | 13.8 µM (inactive) | 29.3 µM (inactive) | 18.3 µM (inactive) | 16.8 µM (inactive) | 24 µM (inactive) | > 100 µM (inactive) | 64 µM (inactive) | 69 µM (inactive) | > 100 µM (inactive)
11 | Cc1ccc(N2C(=O)CC(=O)N(NC(=O)C(C)Oc3ccccc3C)C2=S)cc1 (configuration not stated) | > 100 µM (inactive) | > 100 µM (inactive) | 1.6 µM (inactive) | > 100 µM (inactive) | > 100 µM (inactive) | > 100 µM (inactive) | 65.9 µM (inactive) | 48 µM (inactive) | > 100 µM (inactive) | > 100 µM (inactive) | > 100 µM (inactive) | > 100 µM (inactive) | > 100 µM (inactive) | > 100 µM (inactive) | > 100 µM (inactive) | > 100 µM (inactive) | > 100 µM (inactive) | > 100 µM (inactive) | > 100 µM (inactive) | 57.1 µM (inactive)
12 | COc1ccc2c(c1)-c1c(c3ccccc3n1CCN1CCCCC1)CC2 | 34 µM (inactive) | 10.6 µM (inactive) | 19.5 µM (inactive) | 26.8 µM (inactive) | 2.63 µM (inactive) | 10.3 µM (inactive) | 11.9 µM (inactive) | 15.9 µM (inactive) | 16.6 µM (inactive) | 6.25 µM (inactive) | 25.6 µM (inactive) | 11.9 µM (inactive) | 4.43 µM (inactive) | 1.57 µM (inactive) | 6.37 µM (inactive) | 30.2 µM (inactive) | 24.2 µM (inactive) | 23.7 µM (inactive) | 14.8 µM (inactive) | 6.64 µM (inactive)
13 | Clc1ccc(-c2cc3nc4ccccc4nc3o2)cc1 | > 100 µM (inactive) | > 100 µM (inactive) | > 100 µM (inactive) | > 100 µM (inactive) | > 100 µM (inactive) | > 100 µM (inactive) | > 100 µM (inactive) | > 100 µM (inactive) | > 100 µM (inactive) | 52.5 µM (inactive) | > 100 µM (inactive) | > 100 µM (inactive) | 32.6 µM (inactive) | 32.5 µM (inactive) | 53.3 µM (inactive) | > 100 µM (inactive) | 59.4 µM (inactive) | 31.6 µM (inactive) | 15.3 µM (inactive) | > 100 µM (inactive)
14 | CC(C)OC(=O)c1ccc(CCC2=CC(=O)C=CC2=O)cc1 | 23 µM (inactive) | 25.4 µM (inactive) | 0.697 µM (active) | 11.5 µM (inactive) | 0.773 µM (active) | 18.1 µM (inactive) | 3.04 µM (inactive) | 2.1 µM (inactive) | 21.8 µM (inactive) | 7.78 µM (inactive) | 14.8 µM (inactive) | 18 µM (inactive) | 7.21 µM (inactive) | 11.8 µM (inactive) | 5.45 µM (inactive) | 13.5 µM (inactive) | 34.8 µM (inactive) | 21.6 µM (inactive) | 22.5 µM (inactive) | 2.56 µM (inactive)
